# From paper PMC6413153, “Design, Synthesis, and Use of Novel Photoaffinity Probes in Measuring the Serum Concentration of Glycogen Phosphorylase” (Molecules, 2019)
# Assays:
# [1] = biological target: T1, rabbit muscle glycogen phosphorylase a (RMGPa) (Oryctolagus cuniculus, UniProt P00489); test: Enzyme inhibition assay against rabbit muscle glycogen phosphorylase a (phosphate release from glucose-1-phosphate); assay type: biochemical; settings: mean ± S.D. of three determinations; NI means no inhibition
# T1 sequence (P00489 2-843 limits assumed): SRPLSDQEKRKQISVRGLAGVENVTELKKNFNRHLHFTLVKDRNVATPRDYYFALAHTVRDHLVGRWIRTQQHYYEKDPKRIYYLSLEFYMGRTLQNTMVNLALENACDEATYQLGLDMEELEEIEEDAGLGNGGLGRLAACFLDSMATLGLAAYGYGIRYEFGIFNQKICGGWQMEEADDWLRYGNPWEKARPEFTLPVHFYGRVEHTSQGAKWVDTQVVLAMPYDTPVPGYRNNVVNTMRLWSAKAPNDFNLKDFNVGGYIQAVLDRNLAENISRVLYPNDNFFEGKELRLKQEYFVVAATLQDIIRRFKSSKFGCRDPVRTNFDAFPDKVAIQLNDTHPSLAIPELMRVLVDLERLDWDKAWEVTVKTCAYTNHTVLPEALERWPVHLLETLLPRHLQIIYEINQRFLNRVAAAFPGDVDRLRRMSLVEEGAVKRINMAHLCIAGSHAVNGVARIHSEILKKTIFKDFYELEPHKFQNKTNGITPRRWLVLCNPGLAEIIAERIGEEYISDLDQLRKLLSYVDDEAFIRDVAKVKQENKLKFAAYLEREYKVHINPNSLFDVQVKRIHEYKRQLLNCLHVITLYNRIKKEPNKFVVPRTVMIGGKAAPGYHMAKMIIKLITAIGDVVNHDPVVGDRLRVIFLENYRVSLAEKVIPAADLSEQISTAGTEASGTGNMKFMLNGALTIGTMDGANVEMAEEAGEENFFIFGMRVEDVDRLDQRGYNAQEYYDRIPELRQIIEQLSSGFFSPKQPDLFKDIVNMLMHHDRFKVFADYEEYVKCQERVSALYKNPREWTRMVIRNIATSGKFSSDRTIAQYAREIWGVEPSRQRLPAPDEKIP
# Method: To understand the validity of the synthetic probes, the synthesized probes 1–3 were evaluated in an enzyme inhibition assay against rabbit muscle glycogen phosphorylase a (RMGPa). As described previously, the activity of RMGPa was measured through detecting the release of phosphate from glucose-1-phosphate in the direction of glycogen synthesis, based on the published method.
# The inhibitory activity of the test compounds against RMGPa was monitored using a microplate reader (BIO-RAD, Bio-Rad Laboratories, Hercules, CA, USA), based on the published method. In brief, RMGPa activity was measured in the direction of glycogen synthesis by the release of phosphate from glucose-1-phosphate. Each test compound was dissolved in DMSO and diluted at different concentrations for IC50 determination. The enzyme was added to 100 μL of buffer containing 50 mM Hepes (pH = 7.2), 100 mM KCl, 2.5 mM MgCl2, 0.5 mM glucose-1-phosphate, 1 mg/mL glycogen, and the test compound in 96-well microplates (Costar, Corning Incorporated, Corning, NY, USA). After the addition of 150 μL of 1 M HCl containing 10 mg/mL ammonium molybdate and 0.38 mg/mL malachite green, reactions were run at 22 °C for 25 min, and then the phosphate absorbance was measured at 655 nm. The IC50 values were estimated by fitting the inhibition data to a dose-dependent curve using a logistic derivative equation.
# [2] = test system: serum proteomes prepared from rats with acute myocardial infarction; test: Photoaffinity labeling of serum proteomes, gel-based fluorescence imaging; assay type: binding, rat; settings: UV light 30 min
# Method: Based on the results of the potency in the enzyme assay, probe 1 was selected and used throughout photolabeling studies (Figure 3). The serum proteomes prepared from rats with acute myocardial infarction were incubated with probe 1 at concentrations of […], and 300, 100, and 30 nM, respectively. The mixture was exposed to UV light for 30 min, and then was imaged using the Tanon-6100 Chemiluminescent Imaging system.
# An attempt to semi-quantitatively analyze the serum-free GP level after an acute myocardial infarction was explored. Serum blanks were added in increasing quantities of RMGPa (0, 12.5, 25, 50, and 100 ng/mL at a final concentration) in the presence of an excess of probe 1 (10 μM). In the same way, probe 1 was added to the serum in an acute myocardial infarction model in a rat. […]
# Blood samples prepared from rats with acute myocardial infarction were drawn from the abdominal aorta in rats after coronary ligation using a 23-gauge needle. […] The protein concentration of the suspension was measured according to the Bradford method. […] The band densities were calculated with Quantity One software 4.6.2 (Bio-Rad Laboratories, Inc., Hercules, CA, USA). […] The data were recorded on an LTQ-Orbitrap Fusion mass spectrometer (ThermoFisher Scientific Inc., Waltham, MA, USA) coupled to an Easy-nLC 1000 LC System (Thermo Fischer Scientic). […]
IC50 [1] [µM],melting point [°C],RMGPa IC50 [1],SMILES,"Labelling of protein bands with MW of about 90–100 kDa in semi-quantitative analysis ([2]; 10 μM probe, rat AMI serum and serum blanks with added RMGPa 0–100 ng/mL)","Labelling of protein band with MW of about 90–100 kDa (consistent with MW of GP) ([2]; probe at 10, 3, and 1 mM, and 300, 100, and 30 nM, 2.0 mg/mL proteomes)"
13.2 ± 5.87,151 to 153,–,"CN(C)c1cccc2c(S(=O)(=O)NCCCC[C@H](NC(=O)c3ccc(C(=O)c4ccccc4)cc3)C(=O)OCc3cn(CCOCCOCCOCCOC4CCN(C(=O)[C@H](Cc5ccc(F)cc5)NC(=O)c5cc6cc(Cl)ccc6[nH]5)CC4)nn3)cccc12 [Compound 1, N-[(S)-1-(4-{2-[2-(2-{2-[4-({[(S)-2-(4-Benzoylbenzamido)-6-(dansylamide)hexanoyl]oxy}methyl)-1H-1,2,3-triazol-1-yl]ethoxy}ethoxy)ethoxy]ethoxy}piperidin-1-yl)-3-(4-fluorophenyl)-1-oxopropan-2-yl]-5-chloro-1H-indole-2-carboxamide]",efficiently labeled,clearly labelled
–,159 to 161,no inhibitory activity,"CN(C)c1cccc2c(S(=O)(=O)NCCCCC(NC(=O)c3ccc(C(=O)c4ccccc4)cc3)C(=O)N[C@@H](CCCCNC(=O)CCCC[C@@H]3SC[C@H]4NC(=O)N[C@@H]34)C(=O)OCc3cn(CCOCCOCCOCCOC4CCN(C(=O)[C@H](Cc5ccc(F)cc5)NC(=O)c5cc6cc(Cl)ccc6[nH]5)CC4)nn3)cccc12 (stereo partly drawn) [Compound 2, N-[(S)-1-(4-{2-[2-(2-{2-[4-({[(S)-2-[(S)-2-(4-Benzoylbenzamido)-6-(dansylamide)hexanamido]-6-(5-{(3aR,4S,6aS)-2-oxohexahydro-1H-thieno[3,4-d]imidazol-1-yl}pentanamido)hexanoyl]oxy}methyl)-1H-1,2,3-triazol-1-yl]ethoxy}ethoxy)ethoxy]ethoxy}piperidin-1-yl)-3-(4-fluorophenyl)-1-oxopropan-2-yl]-5-chloro-1H-indole-2-carboxamide]",–,–
–,113 to 115,–,"[N-]=[N+]=NCC(=O)NCCCC[C@H](NC(=O)c1ccc(C(=O)c2ccccc2)cc1)C(=O)OCc1cn(CCOCCOCCOCCOC2CCN(C(=O)[C@H](Cc3ccc(F)cc3)NC(=O)c3cc4cc(Cl)ccc4[nH]3)CC2)nn1 [Compound 3, N-[(S)-1-(4-{2-[2-(2-{2-[4-({[(S)-2-(4-Benzoylbenzamido)-6-(2-azidoacetamido)hexanoyl]oxy}methyl)-1H-1,2,3-triazol-1-yl]ethoxy}ethoxy)ethoxy]ethoxy}piperidin-1-yl)-3-(4-fluorophenyl)-1-oxopropan-2-yl]-5-chloro-1H-indole-2-carboxamide]",–,–
0.43 ± 0.16,103 to 105,–,"O=C(N[C@@H](Cc1ccc(F)cc1)C(=O)N1CCC(OCCOCCOCCOCCO)CC1)c1cc2cc(Cl)ccc2[nH]1 [Compound 11, N-{(S)-1-[4-(2-{2-[2-(2-Hydroxyethoxy)ethoxy]ethoxy}ethoxy)piperidin-1-yl]-3-(4-fluorophenyl)-1-oxopropan-2-yl}-5-chloro-1H-indole-2-carboxamide]",–,–
